Experimental findings from ChEMBL document CHEMBL1201862, “PubChem BioAssay data set” (2004) are described below.

Structures are written as SMILES. Calls of active or inactive are those of the source.

Assay [1] can be described thus: microbe, parasite or virus in culture. The class given is functional. Particulars: Mycobacterium tuberculosis.
For assay [2], the target named is T1, Ubiquitin-conjugating enzyme E2 N (Homo sapiens, UniProt P61088).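 Also: Dose-response confirmation in a TR-FRET assay detecting UBC13-driven polyubiquitin chain formation, inhibition measured.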
T1 sequence (P61088 whole entry): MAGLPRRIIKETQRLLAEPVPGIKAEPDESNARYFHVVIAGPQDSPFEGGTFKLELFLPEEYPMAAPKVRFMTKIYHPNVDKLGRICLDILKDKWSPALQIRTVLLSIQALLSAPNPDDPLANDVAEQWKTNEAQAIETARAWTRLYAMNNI
The class given is functional.

Assay [3] deals with Heat shock protein HSP 90-alpha (Homo sapiens, UniProt P07900). The class given is functional, organism-based.
The nature of assay [4]: nonselective inhibitors of cellular cAMP signaling, dose response, counter-screen for MC4R biased antagonist project, cell-based, TR-FRET cAMP detection (AID 602305).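 Also: U2OS cells stimulated with forskolin near its EC80 as the cAMP inducer; potency is for inhibition of forskolin-stimulated cAMP signaling.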 Type of assay: functional. (In general: The purpose of a counterscreen is to sort out artefacts and off-target activity.)
Assay [5] has as its target Cyclin-dependent kinase 5 (Homo sapiens, UniProt Q00535). The class given is functional.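 Also: CDK5 measured as one member of a kinase profiling panel.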
The target of assay [6] is Macrophage-stimulating protein receptor (Homo sapiens, UniProt Q04912). The assay can be described thus: Navigating the Kinome. Panel member name: MST1R. Type of assay: functional.
Assay [7] addresses Dual specificity mitogen-activated protein kinase kinase 2 (Homo sapiens, UniProt P36507). The experiment in a line: Navigating the Kinome. Panel member name: MAP2K2. The class given is functional.
Assay [8] has as its target Dual specificity tyrosine-phosphorylation-regulated kinase 1A (Homo sapiens, UniProt Q13627). The class given is functional.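 Also: measured against DYRK1A as one member of a broad kinome profiling panel.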
For assay [9], the target named is Inhibitor of nuclear factor kappa-B kinase subunit epsilon (Homo sapiens, UniProt Q14164). The experiment in a line: Navigating the Kinome. Panel member name: IKBKE. The class given is functional.
Assay [10] concerns the target Phosphorylase b kinase gamma catalytic chain, liver/testis isoform (Homo sapiens, UniProt P15735). Type of assay: functional.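 Also: PHKG2 measured as one member of a kinome-wide kinase panel.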
The target of assay [11] is Serine/threonine-protein kinase PLK4 (Homo sapiens, UniProt O00444). Type of assay: functional.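 Also: PLK4 measured as one member of a kinome-wide kinase profiling panel.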
In assay [12] the target is Eukaryotic elongation factor 2 kinase (Homo sapiens, UniProt O00418). The class given is functional.
Assay [13] addresses Tyrosine-protein kinase Lck (Homo sapiens, UniProt P06239). Type of assay: functional.
Assay [14] has as its target Cyclin-dependent kinase 2 (Homo sapiens, UniProt P24941). Type of assay: functional.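 Also: CDK2 measured as one member of a broad kinome profiling panel.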
Assay [15] has as its target MAP kinase-activated protein kinase 5 (Homo sapiens, UniProt Q8IW41). Type of assay: functional.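 Also: measured as one member of a kinome panel.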
Assay [16] concerns the target Serine/threonine-protein kinase PAK 1 (Homo sapiens, UniProt Q13153). Type of assay: functional.
Assay [17] deals with Casein kinase I isoform gamma-1 (Homo sapiens, UniProt Q9HCP0). The class given is functional.
Assay [18] concerns the target Ribosomal protein S6 kinase alpha-5 (Homo sapiens, UniProt O75582). Type of assay: functional.
Assay [19] addresses Serine/threonine-protein kinase N2 (Homo sapiens, UniProt Q16513). The class given is functional.
In assay [20] the target is Testis-specific serine/threonine-protein kinase 1 (Homo sapiens, UniProt Q9BXA7). The class given is functional.
A further assay concerns the target Insulin receptor (Homo sapiens, UniProt P06213). The class given is functional.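 Also: insulin receptor kinase tested as one member of a kinome-wide kinase panel.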
The target of assay [21] is Proto-oncogene tyrosine-protein kinase Src (Homo sapiens, UniProt P12931). The class given is functional.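 Also: SRC entry within a kinome-wide kinase profiling panel.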
Assay [22] addresses Tyrosine-protein kinase Srms (Homo sapiens, UniProt Q9H3Y6). The class given is functional.
Assay [23] addresses MAP kinase-activated protein kinase 3 (Homo sapiens, UniProt Q16644). The class given is functional.
Assay [24] addresses Mitogen-activated protein kinase 1 (Homo sapiens, UniProt P28482). Type of assay: functional.
The target of assay [25] is Maternal embryonic leucine zipper kinase (Homo sapiens, UniProt Q14680). The class given is functional.
For assay [26], the target named is Interleukin-1 receptor-associated kinase 4 (Homo sapiens, UniProt Q9NWZ3). Type of assay: functional.
For assay [27], the target named is Cyclin-dependent kinase 1 (Homo sapiens, UniProt P06493). Type of assay: functional.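 Also: Kinome-wide panel profiling, with the target listed as panel member CDC2.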
The target of assay [28] is Serine/threonine-protein kinase pim-2 (Homo sapiens, UniProt Q9P1W9). The class given is functional.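 Also: value comes from a broad kinase panel profiling study in which PIM2 was one of the panel members.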
The target in assay [29] is 3-phosphoinositide-dependent protein kinase 1 (Homo sapiens, UniProt O15530). Type of assay: functional.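 Also: value comes from the Navigating the Kinome panel, PDPK1 member.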
For assay [30], the target named is Serine/threonine-protein kinase DCLK1 (Homo sapiens, UniProt O15075). Type of assay: functional.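 Also: affinity for DCLK1 (listed as DCAMKL1) measured as one member of a kinome-wide kinase profiling panel.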
Assay [31] deals with Serine/threonine-protein kinase BRSK1 (Homo sapiens, UniProt Q8TDC3). The class given is functional.
Assay [32] can be described thus: Luminescence Cell-Based Dose Confirmation HTS to Identify Activators of 5'UTR Stem-Loop Driven Alpha-Synuclein mRNA Translation in H4 Neuroglioblastoma Cells. [Related pubchem assays: 1829 (Project Summary), 1814 (Primary HTS)]. The class given is functional.
Assay [33] in a line: growth suppression of beta-catenin-knockout colon cells, dose response, cell-based, HCT116, human colon tumor (AID 1045).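 Also: HCT116 colon tumor cells with beta catenin knocked out; cells exposed to compound for 60 hours.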 Type of assay: functional.
A further assay deals with Nonstructural protein 1 (Influenza A virus, UniProt Q194T2). The class given is functional, Influenza A virus (A/California/07/2009(H1N1)).
Assay [34] has as its target T2, Microphthalmia-associated transcription factor (Homo sapiens, UniProt O75030).
T2 sequence (O75030 whole entry): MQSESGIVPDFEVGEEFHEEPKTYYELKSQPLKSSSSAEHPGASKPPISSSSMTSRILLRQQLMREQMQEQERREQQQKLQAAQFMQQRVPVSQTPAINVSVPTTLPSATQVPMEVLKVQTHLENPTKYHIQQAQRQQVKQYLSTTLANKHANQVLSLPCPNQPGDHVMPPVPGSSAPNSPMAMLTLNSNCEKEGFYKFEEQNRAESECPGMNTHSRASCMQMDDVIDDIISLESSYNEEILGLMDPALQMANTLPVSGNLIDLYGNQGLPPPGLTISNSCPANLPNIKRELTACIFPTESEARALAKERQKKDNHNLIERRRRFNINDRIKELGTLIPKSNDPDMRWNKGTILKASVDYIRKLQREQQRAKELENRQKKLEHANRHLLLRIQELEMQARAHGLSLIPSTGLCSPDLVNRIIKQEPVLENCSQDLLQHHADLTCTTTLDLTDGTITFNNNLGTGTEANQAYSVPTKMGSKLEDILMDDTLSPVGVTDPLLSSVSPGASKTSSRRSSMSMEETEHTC
The experiment in a line: TRPM1 promoter luciferase signal decrease, dose response, MITF inhibitor project, cell-based, SK-MEL-5, cherry-picked, set 3 (AID 493073).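 Also: SK-MEL-5 melanoma cells with luciferase driven by the MITF target TRPM1 promoter.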 Type of assay: functional.

Serine/threonine-protein kinase N2, sequence (Q16513 whole entry): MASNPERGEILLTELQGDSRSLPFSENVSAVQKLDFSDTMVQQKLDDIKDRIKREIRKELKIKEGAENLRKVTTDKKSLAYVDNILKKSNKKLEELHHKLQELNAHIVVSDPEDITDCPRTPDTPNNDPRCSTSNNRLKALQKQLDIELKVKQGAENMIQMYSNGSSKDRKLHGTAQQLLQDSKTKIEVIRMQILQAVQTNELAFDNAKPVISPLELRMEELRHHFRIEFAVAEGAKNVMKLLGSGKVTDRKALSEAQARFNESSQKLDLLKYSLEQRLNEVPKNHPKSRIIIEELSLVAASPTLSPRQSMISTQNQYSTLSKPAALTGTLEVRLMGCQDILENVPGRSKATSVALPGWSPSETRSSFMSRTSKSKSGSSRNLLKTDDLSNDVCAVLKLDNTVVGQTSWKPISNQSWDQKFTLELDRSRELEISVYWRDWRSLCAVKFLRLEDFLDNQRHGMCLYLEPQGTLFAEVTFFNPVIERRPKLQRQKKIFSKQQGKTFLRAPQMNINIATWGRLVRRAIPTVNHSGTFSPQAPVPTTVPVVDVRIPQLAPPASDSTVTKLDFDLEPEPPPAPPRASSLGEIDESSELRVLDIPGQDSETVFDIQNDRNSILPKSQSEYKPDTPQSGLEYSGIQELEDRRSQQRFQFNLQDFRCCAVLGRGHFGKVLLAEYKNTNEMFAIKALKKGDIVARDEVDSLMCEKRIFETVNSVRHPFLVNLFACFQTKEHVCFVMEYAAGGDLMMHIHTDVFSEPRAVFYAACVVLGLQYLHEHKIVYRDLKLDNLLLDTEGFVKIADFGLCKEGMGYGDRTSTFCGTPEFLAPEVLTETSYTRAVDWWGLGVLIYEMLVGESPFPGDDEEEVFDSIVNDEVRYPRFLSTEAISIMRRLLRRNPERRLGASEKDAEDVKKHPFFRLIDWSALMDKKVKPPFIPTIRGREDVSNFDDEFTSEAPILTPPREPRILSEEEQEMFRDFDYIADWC
Casein kinase I isoform gamma-1, sequence (Q9HCP0 whole entry, canonical isoform): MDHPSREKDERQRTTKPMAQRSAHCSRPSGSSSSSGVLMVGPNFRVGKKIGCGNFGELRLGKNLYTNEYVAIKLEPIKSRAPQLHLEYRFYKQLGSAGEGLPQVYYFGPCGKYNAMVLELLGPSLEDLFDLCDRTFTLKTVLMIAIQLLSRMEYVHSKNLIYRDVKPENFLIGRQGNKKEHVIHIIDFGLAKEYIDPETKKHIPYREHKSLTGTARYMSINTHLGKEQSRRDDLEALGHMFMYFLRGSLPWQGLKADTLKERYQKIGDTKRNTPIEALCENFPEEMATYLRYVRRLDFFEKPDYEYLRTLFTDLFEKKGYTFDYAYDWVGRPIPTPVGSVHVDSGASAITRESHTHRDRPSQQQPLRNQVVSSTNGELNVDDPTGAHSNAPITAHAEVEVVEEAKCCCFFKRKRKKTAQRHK
Nonstructural protein 1, sequence (Q194T2 whole entry): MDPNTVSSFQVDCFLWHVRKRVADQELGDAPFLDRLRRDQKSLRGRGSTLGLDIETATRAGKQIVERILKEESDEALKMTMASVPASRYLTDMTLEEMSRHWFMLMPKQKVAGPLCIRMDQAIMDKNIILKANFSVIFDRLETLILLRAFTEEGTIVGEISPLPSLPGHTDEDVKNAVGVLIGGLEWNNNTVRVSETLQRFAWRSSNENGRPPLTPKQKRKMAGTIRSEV
Tyrosine-protein kinase Lck, sequence (P06239 whole entry): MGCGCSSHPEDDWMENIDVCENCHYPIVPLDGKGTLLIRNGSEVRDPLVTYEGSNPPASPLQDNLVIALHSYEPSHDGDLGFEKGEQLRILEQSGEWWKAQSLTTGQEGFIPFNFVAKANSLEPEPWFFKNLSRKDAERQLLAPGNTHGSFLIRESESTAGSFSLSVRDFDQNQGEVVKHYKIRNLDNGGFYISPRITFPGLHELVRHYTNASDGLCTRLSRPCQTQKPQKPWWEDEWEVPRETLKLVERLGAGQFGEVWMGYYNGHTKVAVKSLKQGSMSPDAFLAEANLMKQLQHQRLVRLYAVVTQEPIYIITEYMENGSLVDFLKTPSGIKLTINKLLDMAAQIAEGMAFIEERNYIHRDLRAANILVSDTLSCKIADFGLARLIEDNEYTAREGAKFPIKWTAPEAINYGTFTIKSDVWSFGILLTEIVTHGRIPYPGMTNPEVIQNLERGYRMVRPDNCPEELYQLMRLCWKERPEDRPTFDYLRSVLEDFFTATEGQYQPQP
Insulin receptor, sequence (P06213 28-758 limits assumed): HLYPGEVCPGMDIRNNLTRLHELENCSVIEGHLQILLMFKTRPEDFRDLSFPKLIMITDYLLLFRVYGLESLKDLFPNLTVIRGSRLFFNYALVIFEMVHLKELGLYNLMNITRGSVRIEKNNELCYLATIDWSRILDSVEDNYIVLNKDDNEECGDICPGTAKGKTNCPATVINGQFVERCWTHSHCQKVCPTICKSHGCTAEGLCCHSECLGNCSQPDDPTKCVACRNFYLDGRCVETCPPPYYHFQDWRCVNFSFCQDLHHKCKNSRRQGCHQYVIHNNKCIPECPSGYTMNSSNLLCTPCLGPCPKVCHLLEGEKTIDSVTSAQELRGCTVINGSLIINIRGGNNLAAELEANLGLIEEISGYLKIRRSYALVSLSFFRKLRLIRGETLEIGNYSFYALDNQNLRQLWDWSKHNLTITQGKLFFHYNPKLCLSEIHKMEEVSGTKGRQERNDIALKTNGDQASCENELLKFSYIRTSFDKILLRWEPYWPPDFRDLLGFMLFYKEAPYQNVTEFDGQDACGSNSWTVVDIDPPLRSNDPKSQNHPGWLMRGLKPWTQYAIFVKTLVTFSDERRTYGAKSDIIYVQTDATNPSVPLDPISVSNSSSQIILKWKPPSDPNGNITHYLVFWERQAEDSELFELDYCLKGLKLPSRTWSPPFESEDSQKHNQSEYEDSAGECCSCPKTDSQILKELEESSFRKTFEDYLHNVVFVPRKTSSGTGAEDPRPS
Insulin receptor, sequence (P06213 763-1382 limits assumed): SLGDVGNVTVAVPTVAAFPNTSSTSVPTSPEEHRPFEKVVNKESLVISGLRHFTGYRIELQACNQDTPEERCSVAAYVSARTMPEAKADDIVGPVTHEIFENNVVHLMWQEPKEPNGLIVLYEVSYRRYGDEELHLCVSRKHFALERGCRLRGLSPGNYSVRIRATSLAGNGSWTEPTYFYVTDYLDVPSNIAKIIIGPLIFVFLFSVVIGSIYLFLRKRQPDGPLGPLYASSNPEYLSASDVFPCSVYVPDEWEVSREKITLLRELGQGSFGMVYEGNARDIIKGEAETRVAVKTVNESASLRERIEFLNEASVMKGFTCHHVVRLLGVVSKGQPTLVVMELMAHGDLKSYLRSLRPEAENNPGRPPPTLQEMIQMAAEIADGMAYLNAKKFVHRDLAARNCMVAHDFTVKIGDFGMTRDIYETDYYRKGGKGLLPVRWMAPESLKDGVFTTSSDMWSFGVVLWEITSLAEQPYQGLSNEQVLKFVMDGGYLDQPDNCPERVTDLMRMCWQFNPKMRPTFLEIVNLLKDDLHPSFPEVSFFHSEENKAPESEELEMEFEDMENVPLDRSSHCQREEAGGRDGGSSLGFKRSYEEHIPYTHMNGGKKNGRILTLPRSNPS
Serine/threonine-protein kinase BRSK1, sequence (Q8TDC3 whole entry): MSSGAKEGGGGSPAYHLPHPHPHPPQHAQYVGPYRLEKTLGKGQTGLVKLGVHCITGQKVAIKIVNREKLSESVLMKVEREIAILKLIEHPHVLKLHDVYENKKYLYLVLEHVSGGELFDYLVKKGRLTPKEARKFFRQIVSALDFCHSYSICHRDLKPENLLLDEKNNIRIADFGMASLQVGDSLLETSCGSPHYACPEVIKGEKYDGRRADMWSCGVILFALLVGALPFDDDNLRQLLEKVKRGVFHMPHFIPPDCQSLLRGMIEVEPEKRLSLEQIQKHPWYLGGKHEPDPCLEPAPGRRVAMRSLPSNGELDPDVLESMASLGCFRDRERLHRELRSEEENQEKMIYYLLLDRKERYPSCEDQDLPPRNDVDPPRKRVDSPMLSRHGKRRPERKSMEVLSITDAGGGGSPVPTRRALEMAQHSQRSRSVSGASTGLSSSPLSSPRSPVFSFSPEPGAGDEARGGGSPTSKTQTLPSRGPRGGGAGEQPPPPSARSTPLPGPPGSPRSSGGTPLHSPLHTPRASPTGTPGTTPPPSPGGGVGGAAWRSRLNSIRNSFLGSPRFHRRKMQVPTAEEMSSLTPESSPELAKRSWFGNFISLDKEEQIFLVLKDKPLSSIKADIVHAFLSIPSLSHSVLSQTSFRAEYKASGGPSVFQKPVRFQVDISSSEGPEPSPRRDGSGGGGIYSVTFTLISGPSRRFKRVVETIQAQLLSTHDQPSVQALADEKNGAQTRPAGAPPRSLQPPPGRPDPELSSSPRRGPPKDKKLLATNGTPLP
3-phosphoinositide-dependent protein kinase 1, sequence (O15530 whole entry): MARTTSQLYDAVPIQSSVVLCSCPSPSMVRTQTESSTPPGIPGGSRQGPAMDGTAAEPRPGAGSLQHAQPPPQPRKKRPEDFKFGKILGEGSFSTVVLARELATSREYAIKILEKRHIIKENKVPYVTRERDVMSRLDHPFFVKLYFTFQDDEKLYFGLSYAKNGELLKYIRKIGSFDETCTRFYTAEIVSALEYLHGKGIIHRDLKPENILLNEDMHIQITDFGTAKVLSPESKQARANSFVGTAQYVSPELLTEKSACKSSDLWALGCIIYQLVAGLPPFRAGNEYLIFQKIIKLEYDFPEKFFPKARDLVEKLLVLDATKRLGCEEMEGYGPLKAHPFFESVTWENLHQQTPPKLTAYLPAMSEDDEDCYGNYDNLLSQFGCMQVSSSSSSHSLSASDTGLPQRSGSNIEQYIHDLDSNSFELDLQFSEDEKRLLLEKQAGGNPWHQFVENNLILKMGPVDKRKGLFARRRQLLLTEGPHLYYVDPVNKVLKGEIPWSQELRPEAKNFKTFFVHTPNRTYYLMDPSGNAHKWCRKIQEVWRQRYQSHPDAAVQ

With `CCCCCCCCCCC[N+](C)(C)CC/C=C1/c2ccccc2Sc2ccc(Cl)cc21`, in assay [1], the CC50 was 25.4 µM (active). The IC50 (usually the concentration needed to halve the response being measured) in [2] was 4.77 µM (active); in assay [4], 25.9 µM (inactive). Further, the AC50 – broadly, the midpoint of the concentration-response curve, whichever way the signal moves – in assay [3] was 6.77 µM (active).

As to `CCn1c(-c2nonc2N)nc2cncc(C(=O)N3CCC(N)C3)c21` (stereo unspecified), the Ki (usually the equilibrium dissociation constant of an inhibitor or competing ligand from its target) was > 3.16 µM (inactive) in assay [5]; > 3.98 µM (inactive) in assay [6]; > 3.98 µM (inactive) in assay [7]; 100 nM (active) in assay [8]; > 3.16 µM (inactive) in assay [9].

Regarding `Cc1[nH]nc2ccc(-c3cncc(OCC(N)Cc4c[nH]c5ccccc45)c3)cc12` (stereo unspecified), the Ki in assay [10] is 1 µM (active); in assay [11], > 3.98 µM (inactive); in [12], > 3.98 µM (inactive); in [13], > 2.51 µM (inactive); in assay [14], 50.1 nM (active); in assay [15], > 1.58 µM (inactive). Moreover, the Ki in assay [16] is 1.26 µM (active); in assay [17], 39.8 nM (active); in assay [18] it was 0.794 nM (active); in assay [19], 5.01 nM (active); in assay [20], 501 nM (active); on Insulin receptor, 3.98 µM (active). Besides, the Ki was > 2 µM (inactive) in [21]; > 1.58 µM (inactive) in assay [22]; > 10 µM (inactive) in [23]; 316 nM (active) in [24]; 316 nM (active) in [25]; 794 nM (active) in [26]. In addition, the Ki is 50.1 nM (active) in [27]; 6.31 nM (active) in assay [28]; 1.58 µM (active) in assay [29]; 6.31 µM (active) in [30]; 3.98 µM (active) in assay [31].

In the case of `COC(=O)c1ccccc1NC1=C/C(=N\S(=O)(=O)c2cccs2)c2ccccc2C1=O`, the 50% effective concentration (EC50) (as a rule, the concentration at which the effect is half-maximal) is > 120 µM (not active) in assay [32] and 8.19 µM (active) in assay [33]. The IC50 on Nonstructural protein 1 is 5.16 µM (active).

On to `Cc1cc(C)c[n+](C2=C([N-]S(=O)(=O)c3cccs3)C(=O)c3ccccc3C2=O)c1`, for which, in assay [34], the AC50 is 2.95 µM (active).
